In EP1650209A1, “Griseusin derivatives and their use as antitumor agents” (Oncotest GmbH, priority 2004, dated 2006):
In brackets after ≈: the same amount, converted by molar mass.

Legend:
Assay in all cases: Clonogenic assay, colony formation of tumor stem cells from xenografts
Type in all cases: cell-based, human
BXF 1299 = conditions: Bladder, xenograft BXF 1299, colony formation
Procedure: (§1) Using various human cancer xenografts in vitro, the concentrations of compound B which inhibit formation of tumor colonies of tumor stem cells by 50% (IC50) and 70% (IC70) are determined in a clonogenic assay. Specifically, each solid tumor of bladder cancer (BXF 1036 and BXF 1299), cervical cancer (CEXF 633 and CEXF 773), colic cancer (CXF 1103, CXF 158, CXF 1729, CXF 264 and CXF 280), gastric cancer (GXF 251 and GXF 97), head and neck cancer (HNXF 536), liver cancer (LIXF 575), non small cell lung cancer comprising adeno, squamous epithelium and large cell carcinoma (LXFA 1012, LXFA 289, LXFA 297, LXFA 526, LXFA 592, LXFA 629, LXFA 677, LXFE 409, LXFL 1072, LXFL 430LX and LXFL 529), small cell lung cancer (LXFS 650), mammary cancer (MAXF 1162, MAXF 1384, MAXF 401, MAXF 449, MAXF 574, MAXF 583, MAXF 713 and MAXF 857), melanoma (MEXF 1341, MEXF 462, MEXF 535 and MEXF 989), ovary cancer (OVXF 899), pancreatic cancer (PAXF 546 and PAXF 736), prostate cancer (DU-145 and PC3M), pleuramesothelioma (PXF 1752), renal cancer (RXF 1220, RXF 1393, RXF 393, RXF 631 and RXF 944LX), and sarcoma (SXF 1301 and SXF 463) engrafted on RPMI nu/nu thymus aplastic nude mice were explanted, disaggregated by mincing and enzymatic digestion for 50 minutes using 125 U/mL DNAse I, 41 U/mL collagenase IV, 100 U/ml hyaluronidase III, and 1 U/mL dispase I, and passed through sieves of 200 µm and 50 µm mesh size and washed twice with sterile PBS-buffer to remove cell aggregated from single cells. The clonogenic assay was performed in a 24 multiwell format. Each of the resulting single cell suspensions was added at a density of 2·10^4 to 6·10^4 cells per well to 0.2 ml of Iscove's Modified Dulbecco's Medium (IMDM) containing 20% fetal calf serum and 0.01% gentamicin supplemented with 0.4% (w/v) agar, and plated onto a bottom layer consisting of the same culture medium containing 0.75% (w/v) agar. After 24 hours IMDM containing 20% fetal calf serum and 0.01 % gentamicin, together with a test compound, was added there to. Then, the plate was incubated at 37°C for 10 to 20 days in a humidified atmosphere of air containing 7.5% CO2. Within this period, in vitro tumor growth led to the formation of colonies with a diameter of > 50µm. Colony counts were performed with an automatic image analysis system (OMNICON 3600). 24 hours prior to evaluation, vital colonies were stained with a vital staining dye. Therefore, 100 µl of a sterile aqueous solution of 2-(4-iodophenyl)-3-(4-nitrophenyl)-5-phenyltetrazolium chloride (1 mg/ml) were added to each well of the plate, and plates were incubated for 24 hours at 37°C in a humidified atmosphere of air containing 7.5% CO2. Inhibition of colony formation was expressed as test versus untreated control (T/C-value [%]). IC50 and IC70 values were determined by plotting compound concentration versus cell viability. Table 3: Inhibition of Colony Formation of Tumor Stem Cells by griseusin derivative B

CEXF 633 = conditions: Cervix, xenograft CEXF 633, colony formation
Procedure: as §1

CEXF 773 = conditions: Cervix, xenograft CEXF 773, colony formation
Procedure: as §1

CXF 264 = conditions: Colon, xenograft CXF 264, colony formation
Procedure: as §1

DU-145 = conditions: Prostate, xenograft DU-145, colony formation
Procedure: as §1

GXF 97 = conditions: Stomach, xenograft GXF 97, colony formation
Procedure: as §1

LIXF 575 = conditions: Liver, xenograft LIXF 575, colony formation
Procedure: as §1

LXFA 297 = conditions: Lung, non small cell, xenograft LXFA 297, colony formation
Procedure: as §1

LXFA 526 = conditions: Lung, non small cell, xenograft LXFA 526, colony formation
Procedure: as §1

LXFA 629 = conditions: Lung, non small cell, xenograft LXFA 629, colony formation
Procedure: as §1

MAXF 1162 = conditions: Breast, xenograft MAXF 1162, colony formation
Procedure: as §1

MAXF 401 = conditions: Breast, xenograft MAXF 401, colony formation
Procedure: as §1

MAXF 857 = conditions: Breast, xenograft MAXF 857, colony formation
Procedure: as §1

MEXF 989 = conditions: Melanoma, xenograft MEXF 989, colony formation
Procedure: as §1

PAXF 546 = conditions: Pancreas, xenograft PAXF 546, colony formation
Procedure: as §1

PAXF 736 = conditions: Pancreas, xenograft PAXF 736, colony formation
Procedure: as §1

RXF 944LX = conditions: Kidney, xenograft RXF 944LX
Procedure: as §1

SXF 1301 = conditions: Sarcoma, xenograft SXF 1301, colony formation
Procedure: as §1

With `C[C@@H]1CC(=O)[C@@H](O)[C@]2(O1)O[C@@H]1CC(=O)O[C@@H]1C1=C2C(=O)c2c(O)cccc2C1=O` [Compound B, 4'-dehydro-deacetylgriseusin A] the IC50 (BXF 1299) was 1.107 µg/mL (≈ 2.77 µM), the IC70 (BXF 1299) was 1.662 µg/mL (≈ 4.15 µM) and the IC50 (CEXF 633) was 1.310 µg/mL (≈ 3.27 µM). For the same molecule, the IC70 (CEXF 633) was 1.837 µg/mL (≈ 4.59 µM), the IC50 (CEXF 773) was 1.936 µg/mL (≈ 4.84 µM) and the IC70 (CEXF 773) was 2.333 µg/mL (≈ 5.83 µM). It also gave an IC50 (CXF 264) of 0.103 µg/mL (≈ 0.257 µM), an IC70 (CXF 264) of 0.215 µg/mL (≈ 0.537 µM) and an IC50 (DU-145) of 1.086 µg/mL (≈ 2.71 µM). It also gave an IC70 (DU-145) of 1.644 µg/mL (≈ 4.11 µM), an IC50 (GXF 97) of 0.300 µg/mL (≈ 0.749 µM) and an IC70 (GXF 97) of 0.495 µg/mL (≈ 1.24 µM). The IC50 (LIXF 575) was 0.616 µg/mL (≈ 1.54 µM), the IC70 (LIXF 575) was 0.764 µg/mL (≈ 1.91 µM) and the IC50 (LXFA 297) was 1.461 µg/mL (≈ 3.65 µM). It also gave an IC70 (LXFA 297) of 2.179 µg/mL (≈ 5.44 µM), an IC50 (LXFA 526) of 0.300 µg/mL (≈ 0.749 µM) and an IC70 (LXFA 526) of 0.512 µg/mL (≈ 1.28 µM). For the same molecule, the IC50 (LXFA 629) was 0.808 µg/mL (≈ 2.02 µM), the IC70 (LXFA 629) was 1.276 µg/mL (≈ 3.19 µM) and the IC50 (MAXF 1162) was 0.182 µg/mL (≈ 0.455 µM). For the same molecule, the IC70 (MAXF 1162) was 0.362 µg/mL (≈ 0.904 µM), the IC50 (MAXF 401) was 0.478 µg/mL (≈ 1.19 µM) and the IC70 (MAXF 401) was 0.782 µg/mL (≈ 1.95 µM). It also gave an IC50 (MAXF 857) of 1.449 µg/mL (≈ 3.62 µM), an IC70 (MAXF 857) of 1.975 µg/mL (≈ 4.93 µM) and an IC50 (MEXF 989) of 0.118 µg/mL (≈ 0.295 µM). It also gave an IC70 (MEXF 989) of 0.182 µg/mL (≈ 0.455 µM), an IC50 (PAXF 546) of 0.168 µg/mL (≈ 0.42 µM) and an IC70 (PAXF 546) of 0.420 µg/mL (≈ 1.05 µM). It also gave an IC50 (PAXF 736) of 0.246 µg/mL (≈ 0.614 µM), an IC70 (PAXF 736) of 0.452 µg/mL (≈ 1.13 µM) and an IC50 (RXF 944LX) of 0.116 µg/mL (≈ 0.29 µM). For the same molecule, the IC70 (RXF 944LX) was 0.171 µg/mL (≈ 0.427 µM), the IC50 (SXF 1301) was 0.328 µg/mL (≈ 0.819 µM) and the IC70 (SXF 1301) was 0.517 µg/mL (≈ 1.29 µM).
